What is called melting point is the temperature of the solid-liquid transition.

In turn, `CCCCCCC(O)CCCCCCCCCCC(N)=O` (configuration not stated) yielded a melting point of 98 to 99 °C. For `CS(=O)(=O)c1ccccc1C1CCCC2(C1)C(=O)Nc1ccccc12` (configuration not stated) the value was 190 to 191 °C.

`COC(=O)Nc1ccc(OCc2nc3ccccc3s2)c(Cl)c1`: the melting point fell in the range of 133 to 135 °C.

`O=c1oc2c3ccccc3ccc2c2occc12` gave a melting point of 198 to 200 °C. The figure for `CCCc1cc(C(=O)NCCC(N)=O)ccc1OC(C(=O)NS(=O)(=O)c1ccc(C(C)C)cc1)c1ccc2c(c1)OCO2` (configuration not stated) is 110 to 112 °C; for `COc1ccc2cc(-c3cc4c(cc3N)OCO4)ccc2c1` it is 130 to 132 °C; for `COC(=O)NC=Cc1ccc(OCC(O)CNC(C)CC#N)cc1` (configuration not stated) it is 122 to 123 °C. Compound `O=[N+]([O-])C=C1NCC(c2ccccc2)O1` (configuration not stated) displayed a melting point of 139 to 141 °C. The figure for `CCOC(=O)C(Cc1cn(C)c2c(Cl)cccc12)(NC=O)C(=O)OCC` is 83 to 87 °C; for `O=C(CN1CN(OC(F)(F)F)C=N1)c1ccccc1` it is 98 to 101 °C; for `COc1cc2ccc(S(=O)(=O)Cl)cc2cc1OC` it is 128 to 130 °C.

On to `CC(=O)c1ccc2c(c1)Sc1cc(Br)ccc1O2`, for which the melting point was 143 to 145 °C.

Regarding `CC(C)c1cccc(C(C)C)c1NC(=O)CN1CCN(CCOc2nc3ccccc3[nH]2)CC1`, the melting point lay in the range of 205 to 206 °C.

For the compound `CC(C)(C)OC(=O)NN=Cc1cccc(C#N)c1`, the melting point was in the range of 115 to 158 °C.

Regarding `CC(C)c1nc(CCOC(=O)N[C@H](C(=O)N[C@@H](Cc2ccccc2)C[C@H](O)[C@H](Cc2ccccc2)NC(=O)OCc2cncs2)C(C)C)cs1`, the melting point is 146 to 147 °C.

On to `Cc1cnc(NCCc2ccccn2)c(=O)n1NC(=O)CCc1cc(C(F)(F)F)ccc1F`, for which the melting point fell in the range of 181 to 184 °C. Regarding `O=C(O)CCCCCCc1ccc(Cl)cc1`, the melting point lay within 75 to 78 °C. `O=C(O)c1c(I)c(I)c(C(=O)O)c(I)c1I`: the melting point is 205 to 206 °C. `CC(C)=C1C(=O)N(c2ccc(O)cc2)C(=O)/C1=C(\C)c1c(C)n(C)c2ccccc12` yielded a melting point of 231 to 233 °C. Turning to `CCOc1cc2c(=O)[nH]cnc2cc1OC(C)C`, the melting point fell in the range of 204 to 205 °C.

As to `COc1cc2cc(C(=O)Nc3cc(NC(=O)OCc4ccccc4)c4ccccc4c3CCCl)[nH]c2c(OC)c1OC`, the melting point was in the range of 58 to 62 °C. As for `NC(=O)c1ccc(-c2ccc3nnn(Cc4cc5cccnc5cc4F)c3n2)cc1F`, the melting point fell in the range of 206 to 208 °C. For `C[C@@H]1OCc2cc3c(nc21)N1[C@H](C3)CN(C(=O)OC(C)(C)C)C[C@H]1C` the value was 143 to 144 °C. Compound `COP(=O)(OC)c1ccc(-c2coc3ccc(-c4nnc(C)o4)cc23)cc1` yielded a melting point of 168 to 169 °C.

Compound `O=C(O)c1oc(-c2ccccc2)cc(=O)c1Cl` came in with a melting point of 250 °C. The figure for `CN1C(=O)[C@H](NC(=O)CCc2ccco2)N=C(c2ccccc2)c2ccccc21` is 115 to 118 °C; for `CNc1ccc(Sc2nnnn2C)c2cc(-c3nccs3)[nH]c12` it is 211 °C. For `CCOC(=O)c1c(O)c2ccc(F)cc2c(=O)n1CC1CC1`, the melting point was 88 to 89 °C.

In turn, `COc1ccc2ccc(N3C(=O)c4ccccc4C3OCC(=O)NCCN(C)C)nc2n1` (configuration not stated) registered a melting point of 146 °C.

In the case of `CCCCCCC(CCC)OC1(C(C)=O)C=CC=CC1` (configuration not stated), the melting point was 38 to 39 °C.

Compound `O=C(O)c1cn(-c2ccc(Br)cc2)c(-c2ccc(Cl)cc2Cl)n1` had a melting point of 138 to 142 °C. The figure for `COC(=O)c1c(OCc2ccccc2)ccc2c1CCCC2` is 59 to 61 °C. For `CCOC(=O)COc1ccc2c(-c3ccc(Cl)cc3)noc2c1` the value was 97 °C; for `Oc1ccc(-c2nc3cc(Cl)c(O)cc3o2)cc1`, 254 to 256 °C.

`O=c1oc2ccc(-c3ccc(F)cc3F)cc2c(=O)n1-c1cccc(C(F)(F)F)c1` displayed a melting point of 165 to 166 °C. The figure for `Cc1cc(C#N)ccc1-c1cc(=O)c2c(O)cc(O)c([C@@H]3CCN(C)[C@H]3CO)c2o1` is 145 to 147 °C; for `O=c1[nH]c2cc(Br)c3c(c2[nH]c1=O)CN(CCCc1ccccc1)CC3` it is 288 to 293 °C; for `CC(C)(C)CNC(=O)Oc1ccccc1` it is 77 to 78 °C. For `CSc1sc(-c2ccno2)c2c1C(=O)CC(C)(C)C2` the value was 143 to 145 °C; for `C=CCN(C)CCCCCCOc1ccc2c(-c3ccc(Br)cc3)cc(C)nc2c1`, 88 to 93 °C; for `CC[C@@H](c1ccccc1)N(Cc1ccc(C(N)=O)cc1)S(=O)(=O)c1ccc(Cl)cc1`, 158 to 159 °C. The figure for `CCCCc1nn(-c2cc(NC(=O)CC)ccc2Cl)c(=O)n1Cc1ccc(-c2ccccc2S(=O)(=O)NC(C)(C)C)cc1F` is 103 to 105 °C.

Take `ClC1=Nc2cc(Cl)ccc2Cn2cccc21`: the melting point was in the range of 129 to 135 °C. The figure for `CC1CCc2nc(=O)c(-c3ccccc3)cn21` (configuration not stated) is 178 °C; for `CN(C)CCCCCCNC(=O)c1ccc(-c2cnc3c(c2)N(Cc2ccccc2)C(=O)CN3)cc1` it is greater than 200 °C; for `Cc1cc(=O)n(-c2cc(C(=O)O)c(Cl)cc2F)c(=O)n1C(F)F` it is 247 to 248 °C. For `Nc1nc(CN2CCC(c3c[nH]c4ccccc34)CC2)cs1` the value was 195 to 198 °C; for `CCCN(C1=C(O)CC(C2CCCC2)(C2CCCC2)OC1=O)c1cccc(NS(=O)(=O)c2cccs2)c1`, 92 to 95 °C; for `CCc1ccc2oc(C(=O)Nc3ccc(-c4ccc(S(=O)(=O)NC(C(=O)O)C(C)C)cc4)cc3)c(C)c2c1OC` (configuration not stated), 225 to 228 °C. As to `CCCS(=O)(=O)c1ncc(C(F)(F)F)cc1Cl`, the melting point lay in the range of 41 to 42 °C. For `O=C(O)Cc1ccc(OCc2cc(Cl)ccc2C(=O)O)cc1` the value was 197 to 201 °C; for `O=C(Nc1nc(CN2CCC(c3c[nH]c4ccccc34)CC2)cs1)C1CC1`, 120 to 132 °C.

Consider `CCCN=C(N)Nc1ccnc(C(CCC)C(=N)N)n1` (configuration not stated), for which the melting point was 202 to 205 °C. For `O=C1c2ccccc2C(=O)N1CC(Cc1c[nH]c([N+](=O)[O-])n1)ON1C(=O)c2ccccc2C1=O` (configuration not stated) the value was 119 to 121 °C; for `CC1(C)CN=C2C(=O)c3cc(S(=O)(=O)N4CCc5ccccc54)ccc3N2C1`, 170 to 171 °C; for `CC(C)(C)c1ccc(S(=O)(=O)N2c3ccccc3C[C@H]2C(=O)NCc2ccc(NCC(=O)O)cc2)cc1`, 110 °C. `Nc1nc(C2CCN(C(=O)c3ccccc3)CC2)c2cc(Cl)ccc2n1`: the melting point fell in the range of 155 to 158 °C. For `O=C(Nc1ccc(F)cc1F)N(Cc1ccccc1)CC1(c2ccccc2)CCCC1` the value was 119 to 122 °C; for `NC(=O)c1sc2nccc(N3CCN(C(c4ccccc4)c4ccccc4)CC3)c2c1N`, 225 to 233 °C.

`CN(C)c1ccc([N+](=O)[O-])cc1C#N` registered a melting point of 109 to 110 °C. `CCOC(=O)C1=C(C)NC(C=O)=C(C(=O)OCC)C1c1ccccc1[N+](=O)[O-]` (configuration not stated) came in with a melting point of 101 to 103 °C.

`O=C(O)C(CC(=O)N1CCOCC1)NS(=O)(=O)c1ccc(-c2ccc(Cl)cc2)cc1` (configuration not stated) came in with a melting point of 144 to 146 °C.
